{"source": "patent US20170348371A1", "about": "“THE ANTI CANCEROUS, ANTIPARASITE (TOXOPLASMA GONDII (PROTOZOON) AND ANTIMICROBIAL EFFECT AND DOSAGE OF NIGELLA (NIGELLA SATIVA) EXTRACT” (priority 2014, published 2017)", "key": {"Hep2 cells": {"test_system": "Hep2 cells", "assay": "MTT cytotoxicity test on Hep2 cell line", "type": "cell-based, Human", "description": "The oils of the plant as an extract are used which have been obtained by cold pressing and it has been ensured that the extract is fresh and pure. The extracts that have been obtained through the whole study have been initially diluted with solvents, filtered and sterilized. […] The maximum dose and dilution sub doses that have been determined accordingly have been repeated controlled groups. Different amounts of Hep2 cells have been tested in flat bottomed 96 well plates for cell culture during the first stage of the study and it has been determined that […] cells were optimal for the monolayer layer of 2×10^4 cell per well. A pure oil of Nigella plant extract, which has been tested inside various solvents in terms of penetration into cells and homogenous distribution. MTT tests have been carried out relating to Hep2 cells in solvents too. DMSO was selected from solvents such as DMSO and Methanol and was used and cytopathic doses have not been exceeded during the whole study (FIG. 2). Essential oil has been obtained from Nigella and emulsions have been obtained from fixed oil plants (Ginger etc.) and compounds."}, "Toxoplasma gondii": {"test_system": "Toxoplasma gondii", "assay": "ELISA test of efficiency against Toxoplasma gondii in infected Hep2 cells", "type": "cell-based", "details": "for ELISA OD value according to positive control (reproduction) / ELISA value in comparison to PK: 48 hours; for ELISA value: 72 hour plates", "description": "An ELISA (Enzyme-Linked Immunosorbent Assay) test (FIG. 4) has been planned and conducted in order to determine efficiency against Toxoplasma gondii.\nThe ELISA test has been carried out on flat bottom well plates having 96 wells. First of all the base of the plates have been covered with a suitable amount of Hep2 cells. […] Following this all wells have been processed again with different doses (determined with MTT) of Pyrimtheamine, Sulphadiazine and Nigella Sativa extract, prepared with DMSO.\nThe result was read by the ELISA reader device in 30 minutes"}}}
{"smiles": "CCc1nc(N)nc(N)c1-c1ccc(Cl)cc1", "note": "[Pyrimethamine]", "values": [{"measurement": "OD value in MTT test", "setting": "Hep2 cells; 1 μg/ml", "value": "1,228"}, {"measurement": "OD value in MTT test", "setting": "Hep2 cells; 2 μg/ml", "value": "1,198"}, {"measurement": "OD value in MTT test", "setting": "Hep2 cells; 4 μg/ml", "value": 0.623}, {"measurement": "OD value in MTT test", "setting": "Hep2 cells; 8 μg/ml", "value": 0.310}, {"measurement": "OD value in MTT test", "setting": "Hep2 cells; 16 μg/ml", "value": 0.209}, {"measurement": "OD value in MTT test", "setting": "Hep2 cells; 32 μg/ml", "value": 0.097}, {"measurement": "ELISA OD value according to positive control (reproduction)", "setting": "Toxoplasma gondii; 0.5 μg/ml", "value": 75, "unit": "%"}, {"measurement": "ELISA OD value according to positive control (reproduction)", "setting": "Toxoplasma gondii; 1 μg/ml (printed '2.1 and 0.5 μg/ml doses')", "value": 54, "unit": "%"}, {"measurement": "ELISA OD value according to positive control (reproduction)", "setting": "Toxoplasma gondii; 2 μg/ml (printed '2.1 and 0.5 μg/ml doses')", "value": 56, "unit": "%"}, {"measurement": "ELISA OD value according to positive control (reproduction)", "setting": "Toxoplasma gondii; 4 μg/ml", "value": 45, "unit": "%"}, {"measurement": "ELISA value", "setting": "Toxoplasma gondii; 4 μg/ml (1st dose)", "value": 48, "unit": "%"}, {"measurement": "ELISA value", "setting": "Toxoplasma gondii; 2nd dose of series starting from 4 μg/ml", "value": 29, "unit": "%"}, {"measurement": "ELISA value", "setting": "Toxoplasma gondii; 3rd dose of series starting from 4 μg/ml", "value": 36, "unit": "%"}, {"measurement": "ELISA value", "setting": "Toxoplasma gondii; 4th dose of series starting from 4 μg/ml", "value": 41, "unit": "%"}, {"measurement": "ELISA value", "setting": "Toxoplasma gondii; 5th dose of series starting from 4 μg/ml", "value": 32, "unit": "%"}, {"measurement": "ELISA value", "setting": "Toxoplasma gondii; 6th dose of series starting from 4 μg/ml", "value": 27, "unit": "%"}, {"measurement": "ELISA value", "setting": "Toxoplasma gondii; 7th dose of series starting from 4 μg/ml", "value": 27, "unit": "%"}, {"measurement": "ELISA value", "setting": "Toxoplasma gondii; 8th dose of series starting from 4 μg/ml", "value": 73, "unit": "%"}]}
{"smiles": "Nc1ccc(S(=O)(=O)Nc2ncccn2)cc1", "note": "[Sulphadiazine]", "values": [{"measurement": "OD value in MTT test", "setting": "Hep2 cells; 50 μg/ml", "value": "1,002"}, {"measurement": "OD value in MTT test", "setting": "Hep2 cells; 100 μg/ml", "value": 0.827}, {"measurement": "OD value in MTT test", "setting": "Hep2 cells; 200 μg/ml", "value": 0.254}, {"measurement": "ELISA value in comparison to PK", "setting": "Toxoplasma gondii; 25 μg/ml", "value": 80, "unit": "%"}, {"measurement": "ELISA value in comparison to PK", "setting": "Toxoplasma gondii; 50 μg/ml", "value": 97, "unit": "%"}, {"measurement": "ELISA value in comparison to PK", "setting": "Toxoplasma gondii; 4th dose of series from 100 μg/ml (concentration not given)", "value": 79, "unit": "%"}, {"measurement": "ELISA value in comparison to PK", "setting": "Toxoplasma gondii; 5th dose of series from 100 μg/ml (concentration not given)", "value": 61, "unit": "%"}, {"measurement": "ELISA value in comparison to PK", "setting": "Toxoplasma gondii; 6th dose of series from 100 μg/ml (concentration not given)", "value": 95, "unit": "%"}, {"measurement": "ELISA value in comparison to PK", "setting": "Toxoplasma gondii; 7th dose of series from 100 μg/ml (concentration not given)", "value": 84, "unit": "%"}, {"measurement": "ELISA value in comparison to PK", "setting": "Toxoplasma gondii; 8th dose of series from 100 μg/ml (concentration not given)", "value": 97, "unit": "%"}, {"measurement": "ELISA value in comparison to PK", "setting": "Toxoplasma gondii; concentration of 100 (unit not given)", "value": 51, "unit": "%"}, {"measurement": "ELISA value", "setting": "Toxoplasma gondii; 100 μg/ml (1st dose)", "value": 52, "unit": "%"}, {"measurement": "ELISA value", "setting": "Toxoplasma gondii; 2nd dose of series starting from 100 μg/ml", "value": 57, "unit": "%"}, {"measurement": "ELISA value", "setting": "Toxoplasma gondii; 3rd dose of series starting from 100 μg/ml", "value": 52, "unit": "%"}, {"measurement": "ELISA value", "setting": "Toxoplasma gondii; 4th dose of series starting from 100 μg/ml", "value": 77, "unit": "%"}, {"measurement": "ELISA value", "setting": "Toxoplasma gondii; 5th dose of series starting from 100 μg/ml", "value": 75, "unit": "%"}, {"measurement": "ELISA value", "setting": "Toxoplasma gondii; 6th dose of series starting from 100 μg/ml", "value": 55, "unit": "%"}, {"measurement": "ELISA value", "setting": "Toxoplasma gondii; 7th dose of series starting from 100 μg/ml", "value": 52, "unit": "%"}, {"measurement": "ELISA value", "setting": "Toxoplasma gondii; 8th dose of series starting from 100 μg/ml", "value": 84, "unit": "%"}]}
